Drawing on patent publication US8012995B1, “Pharmaceutically active sulfonamide derivatives” (Merck Serono SA, priority 1999, dated 2011), this text covers melting point, IC50 and inhibition for 4 compounds.

In one data set the target is JNK3 (Homo sapiens, UniProt P53779). Nature of the data set: JNK3 in vitro assay (SPA, GST-c-Jun phosphorylation). Format: biochemical. The following applies: amount necessary to achieve 50% inhibition, GST-c-Jun substrate. The procedure: (§1) JNK 2 and 3 in vitro assays: JNK3 and/or 2 assays are performed in 96 well MTT plates, by incubation of 0.5 μg of recombinant pre-activated GST-JNK or GST-JNK2 with 1 μg of recombinant, biotinylated GST-c-Jun and 2 μM ^33γ-ATP (2 nCi/μl), in the to presence or absence of sulfonamide inhibitors if formula I and in a reaction volume of 50 μl containing 50 mM Tris-HCl, pH 8.0; 10 mM MgCl2; 1 mM Dithiothreitol, and 100 μM NaVO4. The incubation is performed for 120 min. at R.T and stopped upon addition of 200 μl of a solution containing 250 μg of Streptavidine-coated SPA beads (Amersham, Inc.)^•, 5 mM EDTA, 0.1% Triton X-100 and 50 μM ATP, in phosphate saline buffer. After incubation for 60 minutes at RT, beads are sedimented by centrifugation at 1500×g for 5 minutes, resuspended in 200 μl of PBS containing 5 mM EDTA, 0.1% Triton X-100 and 50 μM ATP and the radioactivity measured in a scintillation β counter, following sedimentation of the beads as described above. By substituting GST-c Jun for biotinylated GST-1ATF2 or myelin basic protein, this assay can be used to measure inhibition of preactivated p38 and ERK MAP Kinases, respectively.
Chain of JNK3 (P53779 whole entry, species assumed): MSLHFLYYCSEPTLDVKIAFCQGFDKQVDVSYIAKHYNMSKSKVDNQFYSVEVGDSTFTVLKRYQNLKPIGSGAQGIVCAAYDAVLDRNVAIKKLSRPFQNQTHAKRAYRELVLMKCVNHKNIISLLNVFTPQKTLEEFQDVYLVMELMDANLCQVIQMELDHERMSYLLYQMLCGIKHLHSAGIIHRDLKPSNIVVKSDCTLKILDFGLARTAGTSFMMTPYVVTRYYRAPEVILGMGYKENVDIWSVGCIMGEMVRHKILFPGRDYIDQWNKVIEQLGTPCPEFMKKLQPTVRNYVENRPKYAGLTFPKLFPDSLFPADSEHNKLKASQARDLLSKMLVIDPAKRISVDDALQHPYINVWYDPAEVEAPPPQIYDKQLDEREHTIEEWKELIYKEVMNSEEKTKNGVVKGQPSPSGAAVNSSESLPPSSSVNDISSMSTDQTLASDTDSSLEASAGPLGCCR
(§2) The values indicated in respect of JNK2 and 3, p38 and ERK2 refer to the IC50 (μM), i.e. the amount necessary to achieve 50% inhibition of said target (e.g. JNK2). From the above table it could be derived that said test compounds according to formula I do have a significant effect both on JNK2 and 3, but virtually no effect onto p38 and ERK2, thus delivering a quite selective inhibitory effect.

A further data set concerns the target ERK2 (Homo sapiens, UniProt P28482). Description: ERK2 in vitro kinase assay (SPA, myelin basic protein substrate). Format: biochemical. The following applies: amount necessary to achieve 50% inhibition. As for the experimental part:
as §1, §2

Data set [1] deals with IL-2 release by PMA+Iono-stimulated Jurkat cells. Description: IL-2 release assay (ELISA). Format: cell-based. The following applies: Homo sapiens, PMA+Ionomycine-stimulated Jurkat cells, 24 hours, read-out: % Inhibition of IL2 Production @3 uM. As for the experimental part: Jurkat cells, a human T cell leukemia cell line (American Type Culture Collection # TIB 152) were cultured in RPMI 1640 medium (Gibco, BRL) supplemented with 10% of […] FCS, Glutamine and Penstrep. The cell suspension in the medium is diluted to give 2.10^6 cells/mL. The cells were plated (2.10^5 cells/well) on a 96-well plate containing different concentration of test compound (final concentration of compounds, 10, 3, 1, […], 0.1 μM). This mixture is incubated 30 minutes at 37° C. in a humidified CO2 atmosphere. Cells were then treated with 10 ul PMA+Ionomycine (0.1 μM and 1 μM final concentration) in all wells except negative control. In wells without compounds, 10 μl of RPMI 2% DMSO (=0.1% final) is added. Cells are incubated 24 hours at 37° C. and then the supernatant harvested (freeze at −20° C. if not used the same day) prior to performing IL-2 ELISA test on the supernatant.
IL-2 release into the medium by PMA+Iono-stimulated Jurkat cells, in presence or absence of test compounds is assayed by ELISA. Following the procedure described below
Transfer 100 μl capture antibody diluted in PBS at 5 μg/mL into a 96 well ELISA plate and incubate overnight at room temperature.
Aspirate each well and wash 3 times with Wash buffer. After the last wash, damp the plate.
1. Saturate with 200 μl PBS-10% FCS. Incubate 1 hour at room temperature.
2. Repeat the wash step 2.
• 1. Add 100 μl of sample or standard ([…]) and incubate 2 hours at room temperature. • 2. Wash 3 times. • 3. Add 100 μl of biotinylated anti-human IL-2 at 12.5 ng/mL. Incubate 2 hours at room temperature. • 4. Wash 3 times. • 5. Add 100 μl streptavidin-HRP (Zymed #43-4323) at 1:10′000. Incubate 30 minutes at room temperature. • 6. Wash 3 times • 7. Add 100 μl substrate solution (citric acid/Na2HPO4 (1:1)+H2O2 1:2000+OPD). Incubate 20-30 minutes at room temperature. • 8. Add 50 μl of stop solution to each well. • 9. Determine optical density using a microliter plate reader set to 450 nm with correction at 570 nm.

The target in another data set is p38 (Homo sapiens, UniProt Q16539). Description: p38 in vitro kinase assay (SPA, GST-ATF2 substrate). The following applies: amount necessary to achieve 50% inhibition. In kind it is biochemical. The procedure:
as §1, §2

In the next data set the target is JNK2 (Homo sapiens, UniProt P45984). Nature of the data set: JNK2 in vitro assay (SPA, GST-c-Jun phosphorylation). In kind it is biochemical. Conditions: amount necessary to achieve 50% inhibition, GST-c-Jun substrate. As for the experimental part:
as §1, §2

In a further data set the test system is Hlr c-Jun HeLa cells. Nature of the data set: C-Jun reporter assay (Dual-Luciferase). The following applies: Homo sapiens, Hlr c-Jun HeLa cells transfected with pMEKK1. In kind it is cell-based. The procedure: Hlr c-Jun HeLa cells are cultured in DMEM High Glc supplemented with 10% FCS (Sigma), 2 mM Glutamine (Gibco), P/S, Hygromycin b 100 μg/mL and G418 250 μg/mL
The cell suspension are diluted with medium to give about 3.5×10^6 cells/mL and 1 mL of cell suspension are put onto 2 10 cm culture dishes containing 9 mL of culture medium.
• Control: 0.2 μg pTK Renilla, 5.8 μg pBluescript KS, 500 μl OPTIMEM (GIBCO), 18 μl Fugene 6 • Induced: 0.1 μg pMEKK1, 0.2 μg pTK Renilla, 5.7 μg pBluescript KS, 500 μl OPTIMEM (GIBCO), 18 μl Fugene 6 30′ RT
The transfection mixture is added to the plated cells. The plates are incubated over night at 37° C. in a humidified atmosphere of 5% CO2 in air
A 96 wells plate containing 100 μl of culture medium per well is prepared
Negative control (vehicle): 2 μl of DMSO is added to the 100 μl (in triplicate).
Compound: 2 μl of Hit compound stock dilution are added to the 100 μl (in triplicate).
The transfected cells are trypsinised and ressuspend in 12 mL of culture medium.
100 μl of the dilution are added to each of the 96 wells plate.
The plate is incubated over night at 37° C. in a humidified atmosphere of 5% CO2 in air
Dual-Luciferase™ Reporter Assay System (Promega)
The medium is removed from the plate and the cells washed two times with 100 μl PBS Completely remove the rinse solution before applying PLB reagent. Dispense into each culture well […] of 1×PLB. Place the culture plates on a rocking platform or orbital shaker with gentle
rocking/shaking to ensure complete and even coverage of the cell monolayer with 1×PLB. Rock the culture plates at room temperature for 15 minutes. Transfer 20 μl of the lysate into a white opaque 96 wells plate. Read in a luminometer.
• Inject 50 μl of Luciferase Assay Reagent II wait 5″, read 10″ • Inject 50 μl of Stop & Glo® Reagent wait 5″, read 10″ Check RLU Luciferase/RLU Renilla *1000

Bounds are passed on as bounds.

Chain of JNK2 (P45984 whole entry, species assumed): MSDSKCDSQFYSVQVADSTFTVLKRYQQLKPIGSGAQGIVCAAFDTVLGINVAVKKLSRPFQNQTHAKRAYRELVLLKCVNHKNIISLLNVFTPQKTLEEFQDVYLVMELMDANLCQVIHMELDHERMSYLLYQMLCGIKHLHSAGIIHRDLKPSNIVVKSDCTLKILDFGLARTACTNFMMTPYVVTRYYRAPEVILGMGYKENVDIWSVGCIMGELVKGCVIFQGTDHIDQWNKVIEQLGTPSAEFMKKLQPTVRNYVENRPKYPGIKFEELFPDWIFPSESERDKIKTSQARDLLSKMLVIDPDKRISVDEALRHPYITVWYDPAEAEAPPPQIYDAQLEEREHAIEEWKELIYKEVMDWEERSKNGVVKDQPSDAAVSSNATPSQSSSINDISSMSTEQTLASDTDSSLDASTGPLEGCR
Chain of p38 (Q16539 whole entry): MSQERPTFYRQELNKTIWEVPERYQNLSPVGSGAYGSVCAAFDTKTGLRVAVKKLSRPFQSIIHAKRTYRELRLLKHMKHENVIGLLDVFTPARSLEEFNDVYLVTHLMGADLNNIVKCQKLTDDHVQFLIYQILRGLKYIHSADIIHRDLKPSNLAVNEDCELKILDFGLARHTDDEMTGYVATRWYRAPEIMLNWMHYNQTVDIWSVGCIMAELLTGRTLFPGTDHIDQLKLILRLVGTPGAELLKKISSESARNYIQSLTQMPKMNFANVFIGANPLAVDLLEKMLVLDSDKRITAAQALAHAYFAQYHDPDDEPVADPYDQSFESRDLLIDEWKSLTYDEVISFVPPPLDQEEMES
Chain of ERK2 (P28482 whole entry, species assumed): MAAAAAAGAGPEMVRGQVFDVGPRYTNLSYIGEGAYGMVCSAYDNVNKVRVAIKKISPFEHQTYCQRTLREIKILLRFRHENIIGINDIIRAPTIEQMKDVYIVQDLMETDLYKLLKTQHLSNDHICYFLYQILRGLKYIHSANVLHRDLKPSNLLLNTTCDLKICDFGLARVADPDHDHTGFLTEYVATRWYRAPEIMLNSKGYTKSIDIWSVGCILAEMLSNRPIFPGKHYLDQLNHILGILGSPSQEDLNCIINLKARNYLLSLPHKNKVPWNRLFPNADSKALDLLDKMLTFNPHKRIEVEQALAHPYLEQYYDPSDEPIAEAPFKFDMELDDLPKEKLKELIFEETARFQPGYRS

Usually melting point stands for the temperature, or range, at which the solid turns liquid. As to `O=C(NCc1ccc(S(=O)(=O)N2CCC(Nc3cccc(S(=O)(=O)C(F)(F)F)c3)CC2)s1)c1ccc(Cl)cc1` [Example 2, 4-Chloro-N-{5-[4-(3-Trifluoromethanesulfonyl-phenylamino)-piperidine-1-sulfonyl]-thiophen-2-ylmethyl}-benzamide], the melting point lay within 198 to 199 °C.

By IC50 is commonly meant the concentration that inhibits the measured activity by half. Read a low IC50 as higher potency. A word on the inhibition: it is the relative decrease from the control value, in per cent. For `CCCc1cccc(NC2CCN(S(=O)(=O)c3ccc(CNC(=O)c4ccc(Cl)cc4)s3)CC2)c1` [Example 110, 4-chloro-N-{[5-({4-[3-propylanilino]piperidin-1-yl}sulfonyl)thien-2-yl]methyl}benzamide], the melting point lay in the range of 169 to 170 °C. The compound also came in with an IC50 on JNK3 of 110 nM. This compound showed an IC50 on ERK2 greater than 30000 nM. Also, in data set [1], the inhibition at 3 µM was greater than 30%. The compound further yielded an IC50 against p38 greater than 30000 nM. The compound further showed an IC50 against JNK2 of 310 nM. In addition, the inhibition at 10 µM with Hlr c-Jun HeLa cells is greater than 30%.

Consider `O=C(NCc1ccc(S(=O)(=O)N2CCC(n3nnc4ccccc43)CC2)s1)c1ccccc1O` [Example 271, N-[(5-{[4-(1H-1,2,3-benzotriazol-1-yl)piperidin-1-yl]sulfonyl}thien-2-yl)methyl]-2-hydroxybenzamide], for which the IC50 at JNK3 was 360 nM; against ERK2, greater than 30000 nM; at p38, greater than 30000 nM; against JNK2, 220 nM. In addition, the inhibition at 3 µM in data set [1] is greater than 30%. The inhibition at 10 µM with Hlr c-Jun HeLa cells is greater than 30%.

`COc1cccc(C(=O)NCc2ccc(S(=O)(=O)N3CCC(Nc4ccccc4[N+](=O)[O-])CC3)s2)c1` [Example 285, N-({5-[(4-{2-nitroanilino}piperidin-1-yl)sulfonyl]thien-2-yl}methyl)-3-methoxybenzamide]: the IC50 against JNK3 is 190 nM; against ERK2, greater than 30000 nM; on p38, greater than 30000 nM; at JNK2, 230 nM. Besides, the inhibition at 3 µM in data set [1] is greater than 30%. The same compound registered an inhibition at 10 µM in the data set on Hlr c-Jun HeLa cells greater than 30%.
